Experimental data taken from US20250129103A1, “METHODS FOR TREATMENT OF CANCER” (Frontier Medicines Corporation, priority 2022, published 2025).

target: KRAS G12C (GMPPNP-loaded) and cRAF (Ras-binding domain) interaction (Homo sapiens (Human), UniProt P01116, C118S/C51S/C80L/G12C); assay: Inhibition of KRAS G12C and cRAF binding (AlphaScreen); settings: KRAS G12C loaded with GMPPNP, cRaf RBD, 2 hours preincubation; read-out: Raf-1 RBD K-Ras IC50
Procedure: Compounds were diluted in 100% DMSO and each compound concentration was spotted at 200 nl/well onto low volume, white 384 well plates. […] KRAS G12C was preloaded with the GTP analogue Guanosine 5′-[β,γ-imido]triphosphate (GMPPNP). The KRAS G12C was diluted in 25 mM Hepes, pH 7.4, 150 mM NaCl, 5 mM MgCl2, 0.01% TritonX-100 and 10 μM GMPPNP and added at 10 ul/well to compound-spotted plates resulting in a DMSO concentration of 2%. Plates were incubated for 2 hours. A mixture of RBD and the AlphaScreen streptavidin donor and glutathione acceptor beads diluted in 25 mM Hepes, pH 7.4, 150 mM NaCl, 5 mM MgCl2, 0.01% TritonX-100 and 2% DMSO was then added at 10 ul/well and incubated for 60-90 minutes before the samples were read for emission at 570 nm after excitation of the donor beads at 680 nm. All incubations were performed at room temperature. The final top compound concentration was 50 μM with 1:3 titrations for 10-point dose response curves. […] IC50S were determined using nonlinear regression fit of [inhibitor] vs. response (4 parameters). […]

Chain of KRAS G12C (GMPPNP-loaded) and cRAF (Ras-binding domain) interaction (P01116 other isoform, or with tags, fused parts or gaps G12C/C51S/C80L/C118S): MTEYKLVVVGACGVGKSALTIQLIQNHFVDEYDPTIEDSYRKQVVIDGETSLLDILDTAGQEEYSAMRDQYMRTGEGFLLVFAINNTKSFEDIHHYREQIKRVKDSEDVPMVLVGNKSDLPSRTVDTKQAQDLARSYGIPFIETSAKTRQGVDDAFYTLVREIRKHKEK

Compound | IC50
Cc1nccc(/C=C/C(=O)N2CCN(c3nc(OC[C@@]45CCCN4C[C@H](F)C5)nc4c(F)c(-c5cccc6c(C)c(F)ccc56)ncc34)C[C@@H]2CC#N)n1 [Compound 260] | > 500 nM
N#CC[C@H]1CN(c2nc(OC[C@@]34CCCN3C[C@H](F)C4)nc3c(F)c(-c4cccc5ccc(F)c(F)c45)ncc23)CCN1C(=O)/C=C/CN1CCn2ccnc2C1 [Compound 263] | 10 to 100 nM
Cn1cnc(/C=C/C(=O)N2CCN(c3nc(OC[C@@]45CCCN4C[C@H](F)C5)nc4c(F)c(-c5cccc6cccc(Cl)c56)ncc34)C[C@@H]2CC#N)c1 [Compound 42] | > 500 nM
N#CC[C@H]1CN(c2nc(OCC34CCCN3CCC4)nc3c2CCN(c2cccc4cccc(Cl)c24)C3)CCN1C(=O)/C=C/CN1CCCS1(=O)=O [Compound 178] | 100 to 500 nM
N#CC[C@H]1CN(c2nc(OC[C@@]34CCCN3C[C@H](F)C4)nc3c(F)c(-c4cccc(F)c4C4CC4)ncc23)CCN1C(=O)/C=C/CN1C2CCC1COC2 [Compound 269] | < 10 nM
Cn1cnc(/C=C/C(=O)N2CCN(c3nc(OC[C@@]45CCCN4C[C@H](F)C5)nc4c(F)c(-c5cccc6cccc(Cl)c56)ncc34)C[C@@H]2CC#N)n1 [Compound 40] | > 500 nM
N#CC[C@H]1CN(c2nc(OCC34CCCN3CCC4)nc3c(F)c(-c4cccc5cccc(Cl)c45)ncc23)CCN1C(=O)/C=C/CN1C[C@H]2C[C@@H]1CO2 [Compound 185] | < 10 nM
CN1CCN(C/C=C/C(=O)N2CCN(c3nc(OC[C@@]45CCCN4C[C@H](F)C5)nc4c(F)c(-c5cccc6cccc(Cl)c56)ncc34)C[C@@H]2CC#N)CC1 [Compound 280] | 10 to 100 nM
N#CC[C@H]1CN(c2nc(OCC34CCCN3CCC4)nc3c2CCN(c2cccc4cccc(Cl)c24)C3)CCN1C(=O)/C=C/CN1CCOC2CC21 (stereo partly shown) [Compound 164] | 10 to 100 nM
CC(C)c1noc(/C=C/C(=O)N2CCN(c3nc(OCC45CCCN4CCC5)nc4c3CCN(c3ccccc3C(F)F)C4)C[C@@H]2CC#N)n1 [Compound 144] | > 500 nM
N#CC[C@H]1CN(c2nc(OCC34CCCN3CCC4)nc3c2CCN(c2cccc4cccc(Cl)c24)C3)CCN1C(=O)/C=C/CN1CC2CC(C1)O2 [Compound 166] | < 10 nM
CC(C)c1noc(/C=C/C(=O)N2CCN(c3nc(OC[C@@]45CCCN4C[C@H](F)C5)nc4c3CCN(c3cccc5cccc(Cl)c35)C4)C[C@@H]2CC#N)n1 [Compound 125] | 10 to 100 nM
N#CC[C@H]1CN(c2nc(OC[C@@]34CCCN3C[C@H](F)C4)nc3c(F)c(-c4cccc5cccc(Cl)c45)ncc23)CCN1C(=O)/C=C/CN1CCn2ccnc2C1 [Compound 262] | 10 to 100 nM
C[C@@H]1CN(C/C=C/C(=O)N2CCN(c3nc(OCC45CCCN4CCC5)nc4c3CCN(c3cccc5cccc(Cl)c35)C4)C[C@@H]2CC#N)C[C@@H](C)O1 [Compound 197] | 10 to 100 nM
Cc1cc(/C=C/C(=O)N2CCN(c3nc(OC[C@@]45CCCN4C[C@H](F)C5)nc4c(F)c(-c5cccc6c(C)c(F)ccc56)ncc34)C[C@@H]2CC#N)nc(C)n1 [Compound 250] | 100 to 500 nM
Cc1nccc(/C=C/C(=O)N2CCN(c3nc(OC[C@@]45CCCN4C[C@H](F)C5)nc4c(F)c(-c5cccc6ccccc56)ncc34)C[C@@H]2CC#N)n1 [Compound 210] | 100 to 500 nM
Cc1cc(/C=C/C(=O)N2CCN(c3nc(OC[C@@]45CCCN4C[C@H](F)C5)nc4c(F)c(-c5cccc6ccccc56)ncc34)C[C@@H]2CC#N)nc(C)n1 [Compound 209] | 100 to 500 nM
CC(C)c1noc(/C=C/C(=O)N2CCN(c3nc(OC[C@]45CCCN4C[C@H](F)C5)nc4c(F)c(-c5cccc6ccc(F)c(Cl)c56)ncc34)C[C@@H]2CC#N)n1 [Compound 133] | 10 to 100 nM
C[C@@H](F)c1noc(/C=C/C(=O)N2CCN(c3nc(OC[C@@]45CCCN4C[C@H](F)C5)nc4c(F)c(-c5cccc6cccc(Cl)c56)ncc34)C[C@@H]2CC#N)n1 [Compound 130] | 10 to 100 nM
N#CC[C@H]1CN(c2nc(OC[C@@]34CCCN3C[C@H](F)C4)nc3c(F)c(-c4cccc(Cl)c4C(F)(F)F)ncc23)CCN1C(=O)/C=C/CN1CCOCC1 [Compound 296] | < 10 nM
CC(C)c1noc(/C=C/C(=O)N2CCN(c3nc(OC[C@@]45CCCN4C[C@H](F)C5)nc4c(F)c(-c5cccc6cccc(Cl)c56)ncc34)C[C@@H]2CC#N)n1 [Compound 121] | 100 to 500 nM
CC1(/C=C/C(=O)N2CCN(c3nc(OCC45CCCN4CCC5)nc4c3CCN(c3cccc5cccc(Cl)c35)C4)C[C@@H]2CC#N)COC1 [Compound 116] | > 500 nM

Compound | IC50
CO[C@@H]1CCN(C/C=C/C(=O)N2CCN(c3nc(OCC45CCCN4CCC5)nc4c3CCN(c3cccc5cccc(Cl)c35)C4)C[C@@H]2CC#N)C1 [Compound 173] | < 10 nM
N#CC[C@H]1CN(c2nc(OC[C@@]34CCCN3C[C@H](F)C4)nc3c(F)c(-c4cccc5ccc(F)c(F)c45)ncc23)CCN1C(=O)/C=C/CN1CCn2ncnc2C1 [Compound 266] | 100 to 500 nM
CCc1c(Cl)cccc1-c1ncc2c(N3CCN(C(=O)/C=C/CN4[C@@H]5CC[C@H]4COC5)[C@@H](CC#N)C3)nc(OC[C@@]34CCCN3C[C@H](F)C4)nc2c1F [Compound 281] | 10 to 100 nM
CO[C@@H]1CCN(C/C=C/C(=O)N2CCN(c3nc(OC[C@@]45CCCN4C[C@H](F)C5)nc4c(F)c(-c5cccc(Cl)c5C5CC5)ncc34)C[C@@H]2CC#N)C1 [Compound 288] | < 10 nM
N#CC[C@H]1CN(c2nc(OCC34CCCN3CCC4)nc3c2CCN(c2cccc4cccc(Cl)c24)C3)CCN1C(=O)/C=C/CCN1CCOCC1 [Compound 153] | 10 to 100 nM
N#CC[C@H]1CN(c2nc(OCC34CCCN3CCC4)nc3c2CCN(c2cccc4cccc(Cl)c24)C3)CCN1C(=O)/C=C/CN1CC[C@H](F)C1 [Compound 174] | < 10 nM
Cn1cnc(/C=C/C(=O)N2CCN(c3nc(OC[C@@]45CCCN4C[C@H](F)C5)nc4c3CCN(c3cccc5cccc(Cl)c35)C4)C[C@@H]2CC#N)c1 [Compound 44] | 100 to 500 nM
N#CC[C@H]1CN(c2nc(OC[C@@]34CCCN3C[C@H](F)C4)nc3c(F)c(-c4cccc(Cl)c4C4CCC4)ncc23)CCN1C(=O)/C=C/CN1[C@@H]2CC[C@H]1COC2 [Compound 282] | 10 to 100 nM
CC(C)c1noc(/C=C/C(=O)N2CCN(c3nc(OC[C@@]45CCCN4C[C@H](F)C5)nc4c(F)c(-c5cccc6ccc(F)c(Cl)c56)ncc34)C[C@@H]2CC#N)n1 [Compound 132] | 10 to 100 nM
CO[C@H]1CCN(C/C=C/C(=O)N2CCN(c3nc(OCC45CCCN4CCC5)nc4c3CCN(c3cccc5cccc(Cl)c35)C4)C[C@@H]2CC#N)C1 [Compound 200] | < 10 nM
N#CC[C@H]1CN(c2nc(OC[C@@]34CCCN3C[C@H](F)C4)nc3c(F)c(-c4ccccc4C4CC4)ncc23)CCN1C(=O)/C=C/CN1[C@@H]2CC[C@H]1COC2 [Compound 271] | 10 to 100 nM
CN1CCN(C/C=C/C(=O)N2CCN(c3nc(OC[C@@]45CCCN4C[C@H](F)C5)nc4c(F)c(-c5cccc(Cl)c5C5CC5)ncc34)C[C@@H]2CC#N)CC1 [Compound 286] | 10 to 100 nM
N#CC[C@H]1CN(c2nc(OCC34CCCN3CCC4)nc3c2CCN(c2cccc4cccc(Cl)c24)C3)CCN1C(=O)/C=C/CN1CC[C@@H](F)C1 [Compound 175] | < 10 nM
CC(C)c1noc(/C=C/C(=O)N2CCN(c3nc(OC[C@@]45CCCN4C[C@H](F)C5)nc4c(F)c(-c5nc(N)cc6cccc(F)c56)ncc34)C[C@@H]2CC#N)n1 [Compound 134] | 10 to 100 nM
N#CC[C@H]1CN(c2nc(OC[C@@]34CCCN3C[C@H](F)C4)nc3c(F)c(-c4cccc5cccc(Cl)c45)ncc23)CCN1C(=O)/C=C/CN1CCn2cnnc2C1 [Compound 270] | 100 to 500 nM
N#CC[C@H]1CN(c2nc(OC[C@@]34CCCN3C[C@H](F)C4)nc3c(F)c(-c4ccc(F)c(F)c4C4CC4)ncc23)CCN1C(=O)/C=C/CN1[C@@H]2CC[C@H]1COC2 [Compound 272] | 10 to 100 nM
N#CC[C@H]1CN(c2nc(OC[C@@]34CCCN3C[C@H](F)C4)nc3c(F)c(-c4cccc(Cl)c4C4CC4)ncc23)CCN1C(=O)/C=C/CN1CC2CCC1CO2 (stereo partly shown) [Compound 279] | < 10 nM
N#CC[C@H]1CN(c2nc(OCC34CCCN3CCC4)nc3c2CCN(c2cccc4cccc(Cl)c24)C3)CCN1C(=O)/C=C/CN1CC(F)(F)C1 [Compound 177] | 10 to 100 nM
CC(F)(F)c1noc(/C=C/C(=O)N2CCN(c3nc(OCC45CCCN4CCC5)nc4c3CCN(c3cccc5cccc(Cl)c35)C4)C[C@@H]2CC#N)n1 [Compound 41] | 10 to 100 nM
C=C(C)c1c(Cl)cccc1-c1ncc2c(N3CCN(C(=O)/C=C/CN4C5CCC4COC5)[C@@H](CC#N)C3)nc(OC[C@@]34CCCN3C[C@H](F)C4)nc2c1F [Compound 326] | < 10 nM
Cc1c(F)ccc2cccc(-c3ncc4c(N5CCN(C(=O)/C=C/CN6[C@@H]7CC[C@H]6COC7)[C@@H](CC#N)C5)nc(OC[C@@]56CCCN5C[C@H](F)C6)nc4c3F)c12 [Compound 106, 2-((S)-1-((E)-4-((1R,5S)-3-oxa-8-azabicyclo[3.2.1]octan-8-yl)but-2-enoyl)-4-(8-fluoro-7-(7-fluoro-8-methylnaphthalen-1-yl)-2-(((2R,7aS)-2-fluorotetrahydro-1H-pyrrolizin-7a(5H)-yl)methoxy)pyrido[4,3-d]pyrimidin-4-yl)piperazin-2-yl)acetonitrile] | < 10 nM
